Target: T1, ERα (Homo sapiens, UniProt P03372)
T1 sequence (P03372 1-595): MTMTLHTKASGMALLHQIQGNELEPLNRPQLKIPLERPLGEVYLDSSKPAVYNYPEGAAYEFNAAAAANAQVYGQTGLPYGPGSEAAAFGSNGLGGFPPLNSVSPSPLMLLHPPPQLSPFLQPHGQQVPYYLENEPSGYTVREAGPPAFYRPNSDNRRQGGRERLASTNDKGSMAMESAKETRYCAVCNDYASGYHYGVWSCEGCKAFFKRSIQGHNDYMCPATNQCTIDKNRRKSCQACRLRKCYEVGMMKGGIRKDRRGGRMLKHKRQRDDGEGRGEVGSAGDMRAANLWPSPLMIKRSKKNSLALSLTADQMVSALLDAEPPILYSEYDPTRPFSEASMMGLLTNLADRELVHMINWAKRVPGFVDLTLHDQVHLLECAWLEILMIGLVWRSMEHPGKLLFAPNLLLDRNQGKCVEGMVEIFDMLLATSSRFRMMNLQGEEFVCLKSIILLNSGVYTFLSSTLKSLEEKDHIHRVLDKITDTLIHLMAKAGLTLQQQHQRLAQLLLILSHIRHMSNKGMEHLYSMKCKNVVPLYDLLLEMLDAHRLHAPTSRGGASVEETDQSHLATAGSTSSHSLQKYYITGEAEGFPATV
Test: fluorescence polarization competition with ES2 tracer, recombinant ER
Format: binding

Oc1ccc(Nc2nc(-c3ccc(Cl)cc3)cs2)cc1 [SKI-II, 4-[4-(4-chloro-phenyl)-thiazol-2-ylamino]-phenol]
IC50: 85.8 nM
